{
  "source": "ChEMBL document CHEMBL3784999",
  "about": "“Investigation of 4-amino-5-alkynylpyrimidine-2(1H)-ones as anti-mycobacterial agents” (Bioorg Med Chem, 2016)",
  "key": {"[1]": {"system": "Mycobacterium tuberculosis", "test": "Antimycobacterial activity against rifampicin resistant Mycobacterium tuberculosis H37Rv ATCC 35838", "format": "functional"}, "[2]": {"system": "Mycobacterium tuberculosis", "test": "Antimycobacterial activity against rifampicin resistant Mycobacterium tuberculosis H37Rv ATCC 35838 at 1 ug/ml", "format": "functional"}, "[3]": {"system": "Mycobacterium tuberculosis", "test": "Antimycobacterial activity against rifampicin resistant Mycobacterium tuberculosis H37Rv ATCC 35838 at 2 ug/ml", "format": "functional, organism-based"}},
  "note": "The source made the active and inactive calls. The calls are words filed in the database; no cut-off is given here.",
  "data": [
    {"smiles": "CCCCCC#Cc1c[nH]c(=O)nc1N", "values": [
      {"measurement": "MIC50", "setting": "[1]", "value": 12.5, "unit": "µg/mL"}
    ]},
    {"smiles": "NNC(=O)c1ccncc1", "note": "[ISONIAZID]", "values": [
      {"measurement": "inhibition at 1 µg/mL", "setting": "[2]", "value": 100, "unit": "%"}
    ]},
    {"smiles": "CO[C@H]1/C=C/O[C@@]2(C)Oc3c(C)c(O)c4c(O)c(c(/C=N/N5CCN(C)CC5)c(O)c4c3C2=O)NC(=O)/C(C)=C\\C=C\\[C@H](C)[C@H](O)[C@@H](C)[C@@H](O)[C@@H](C)[C@H](OC(C)=O)[C@@H]1C", "note": "[RIFAMPIN]", "values": [
      {"measurement": "Activity", "setting": "[3]", "value": "inactive"}
    ]}
  ]
}
